One may read the clearance as the rate of elimination divided by the concentration. One may read the Cmax as the maximum level reached in the sampled fluid or tissue. By half-life is commonly meant the time needed for the level to fall by half in the phase considered. As usually defined, the inhibition is the share of the control response that was lost under treatment.

This note sets out measurements from PMC8187357 (Communications Biology, 2021).

Several values for one entry are separate records, joined by “and”; a condition that tells them apart may be missing. Identical values can stand only once. Like-named read-outs stand apart in the source and are kept apart here.

Data set [1] is described as follows: Pharmacokinetics in mice. Type of data set: in vivo, mouse. The procedure:
Animals in Group 1 were administered with 5% w/v dextrose in water and Group 2 were administered with corresponding formulation listed in the Supplementary Table 6 through oral routes. Blood samples (approximately 40 μl) were collected under light isoflurane anesthesia from submandibular at predose, 0.08 (IV), 0.25, 0.5, 1, 2, 4, 8, and 24 h using sparse sampling technique. Plasma samples were separated by centrifugation of whole blood and stored below −70 °C until bioanalysis. All samples were processed for analysis by protein precipitation and analyzed with fit-for-purpose LC–MS/MS method.

Data set [2] relates to purinergic P2X, P2Y. The data set is described as follows: CEREP 80 panel binding: purinergic. The conditions noted are these: 10 µM. On the procedure:
(§1) CEREP 80 panel assay was carried out by Eurofins Cerep Panlabs facility at France. A series of binding assays was carried out to understand the off-target toxicity of CA-170. CA-170 was tested at 10 μM test concentration in duplicates. Compound binding was calculated as a % inhibition of the binding of a radioactively labeled ligand specific for each target. In each experiment the respective reference compound was tested concurrently with CA-170, and the data were compared with historical values determined at Eurofins. The experiment was accepted in accordance with Eurofins validation standard operating procedure. The results are expressed as a percent of control specific binding; (measured specific binding / control specific binding) × 100 and as a percent inhibition of control specific binding; 100−(measured specific binding / control specific binding) × 100 obtained in the presence of CA-170. The IC50 values (concentration causing a half-maximal inhibition of control specific binding) and Hill coefficients (nH) were determined by non-linear regression analysis of the competition curves generated with mean replicate values using Hill equation curve fitting.

In data set [3] the test system is CT26 colon carcinoma. Description: CT26 model, survival in combination with cyclophosphamide. The conditions noted are these: CT26. Type of data set: in vivo, mouse. The procedure:
(§2) Studies in syngeneic models including B16 melanoma metastasis model and CT26 colon carcinoma subcutaneous model were performed as described. For the Docetaxel combination experiment in CT26 model, indicated dosage of docetaxel (Source: Docetere® injection by Dr Reddy’s Laboratories) was dosed intraperitoneally to animals. For the CA-170 combination groups, CA-170 (10 mg/kg/day, oral) was dosed ~10 min after docetaxel. Animal grouping, treatment efficacy assessment and %TGI calculations were performed as mentioned above. For the CT26 experiment with cyclophosphamide, 100 mg/kg of cyclophosphamide was dosed once on day 5 intraperitoneally after cell implantation (first day of dosing for all other groups). Anti-PD1 antibody (Clone J43 from BioXcel) was dosed intraperitoneally at 100 µg/animal once every week.

The target in data set [4] is T1, Neurotensin NTS1 (Homo sapiens, UniProt P30989).
T1 construct: Eurofins Cerep Panlabs (contract assay)
The data set is described as follows: CEREP 80 panel binding: Neurotensin. The conditions noted are these: read-out: % Inhibition of Control Specific Binding. On the procedure: as §1

The test system of data set [5] is CT26 colon carcinoma. The data set is described as follows: CT26 model, combination with docetaxel. Type of data set: in vivo, mouse. The conditions noted are these: for Individual tumor volumes: CA-170 alone, individual animals; for TGI: CT26 in Balb/c mice, 12 days. The procedure: as §2

T1 sequence (P30989 whole entry): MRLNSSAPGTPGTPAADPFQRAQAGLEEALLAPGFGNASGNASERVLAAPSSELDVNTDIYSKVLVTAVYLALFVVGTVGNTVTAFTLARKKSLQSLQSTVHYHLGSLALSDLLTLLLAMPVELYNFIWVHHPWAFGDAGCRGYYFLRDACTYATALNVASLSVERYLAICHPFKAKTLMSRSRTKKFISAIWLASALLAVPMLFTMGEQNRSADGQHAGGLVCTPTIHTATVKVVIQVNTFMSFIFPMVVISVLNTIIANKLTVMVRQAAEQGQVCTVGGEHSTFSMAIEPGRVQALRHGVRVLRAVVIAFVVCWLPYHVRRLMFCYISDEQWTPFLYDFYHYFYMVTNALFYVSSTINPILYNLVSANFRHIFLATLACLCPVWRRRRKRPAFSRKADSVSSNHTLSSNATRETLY

With `C[C@@H](O)[C@H](NC(=O)N[C@@H](CC(N)=O)c1nc([C@@H](N)CO)no1)C(=O)O` [CA-170], the AUC amounted to 4200 ng·h/mL in data set [1] (male, CD-1, mouse, plasma, mice, intravenous 1 mg kg−1, read-out: Mice PK parameters AUCi iv(0-α)) and 19600 ng·h/mL in data set [1] (male, CD-1, mouse, plasma, mice, oral 30 mg kg−1, read-out: Mice PK parameters AUC po (0-α)). Moreover, in data set [1] (male, CD-1, mouse, plasma, mice, intravenous 1 mg kg−1, read-out: Mice PK parameters Clearance (converted)), the clearance was 12.1 mL/min/kg. The bioavailability in data set [1] (male, CD-1, mouse, plasma, mice, iv 1 mg kg−1, oral 30 mg kg−1, read-out: Mice PK parameters % F) stood at 50%. The Cmax in data set [1] (male, CD-1, mouse, plasma, mice, oral 30 mg kg−1, read-out: Mice PK parameters Cmax) is 1720 ng/mL. In data set [1] (male, CD-1, mouse, plasma, preclinical PK exposure), the half-life is 3.4 h. Also, the “oral bioavailability (in words)” value in data set [1] (mouse, in vivo, po) is on record as “good oral bioavailability”. In addition, in data set [2], the “% Inhibition of Control Specific Binding” value is given as no more than 3%. The “survival advantage vs vehicle + CTX (in words)” value in data set [3] (CA-170 3 mg/kg/day + single dose CTX 100 mg/kg) and in data set [3] (CA-170 10 mg/kg/day + single dose CTX 100 mg/kg) was “Statistically significant survival advantage” in each case. Besides, in data set [4], the inhibition at 10 µM was found to be 7%. The Individual tumor volumes is 20.16 mm3 and 32.48 mm3 and 34.58 mm3 and 45.49 mm3 and 48.25 mm3 and 58.95 mm3 and 62 mm3 and 77.12 mm3 and 87.62 mm3 in data set [5] (day 1 of treatment); 46.73 mm3 and 66.38 mm3 and 43.09 mm3 and 70.24 mm3 and 54.41 mm3 and 118.43 mm3 and 93.26 mm3 and 105.24 mm3 and 188.91 mm3 in data set [5] (day 4 of treatment); 73.66 mm3 and 96.49 mm3 and 125.38 mm3 and 93.3 mm3 and 88 mm3 and 204.79 mm3 and 132.26 mm3 and 118.36 mm3 and 317.89 mm3 in data set [5] (day 6 of treatment); 84.62 mm3 and 174.68 mm3 and 185.55 mm3 and 147.74 mm3 and 147.76 mm3 and 334.98 mm3 and 214.88 mm3 and 178.28 mm3 and 601.81 mm3 in data set [5] (day 8 of treatment); 209.65 mm3 and 360.36 mm3 and 315.63 mm3 and 279.2 mm3 and 265.42 mm3 and 706.83 mm3 and 356.89 mm3 and 376.42 mm3 and 728.46 mm3 in data set [5] (day 11 of treatment). The TGI came out at 43% in data set [5] (CA-170 10 mg/kg/day single agent); 68% in data set [5] (combination CA-170 10 mg/kg and docetaxel 10 mg/kg).
